≈ marks a conversion by molar mass, not a printed value.
Key:
Format in all cases: cell-based
E. coli W3110 = assay: microbe, parasite or virus in culture; conditions: for MIC: Escherichia coli, W3110, 22 h, read-out: MIC E. coli W3110
E. coli W3110RL = assay: microbe, parasite or virus in culture; conditions: for MIC: Escherichia coli, W3110RL, 22 h, read-out: MIC E. coli W3110RL; for MIC E. coli W3110RL: E. coli with lpxC of R. leguminosarum, 22 hours at 37° C., MTT
P. aeruginosa (PAO1) = assay: MIC, P. aeruginosa; conditions: for MIC: Pseudomonas aeruginosa, PAO1, 22 h, read-out: MIC P. aeruginosa (PAO1); for MIC P. aeruginosa (PAO1): 22 hours at 37° C., MTT
E. coli W3110PA = assay: microbe, parasite or virus in culture; conditions: for MIC: Escherichia coli, W3110PA, 22 h, read-out: MIC E. coli W3110PA; for MIC E. coli W3110PA: E. coli with lpxC of P. aeruginosa, 22 hours at 37° C., MTT
[1] = tested on: Acinetobacter Baumannii antibiotic susceptible strain (Sus. A.b. Isolate); assay: Disk diffusion assay, antibiotic susceptible strain; parameters: key to diameter of the growth inhibition, Sus. A.b. Isolate: A: no detectable inhibition; B: 6-10 mm; C: 11-15 mm; D: ≧16; conditions: 2 μg of compound per disc, disc 6 mm in diameter; for zone of inhibition at 2 µg/disc: Acinetobacter baumannii, read-out: diameter of the growth inhibition, Sus. A.b. Isolate
[2] = tested on: Acinetobacter Baumannii multidrug-resistant strain (MDR A.b. Isolate); assay: Disk diffusion assay, multidrug-resistant strain; parameters: key to diameter of the growth inhibition, MDR A.b. Isolate: A: no detectable inhibition; B: 6-10 mm; C: 11-15 mm; D: ≧16; conditions: 2 μg of compound per disc, disc 6 mm in diameter; for zone of inhibition at 2 µg/disc: Acinetobacter baumannii, read-out: diameter of the growth inhibition, MDR A.b. Isolate
N. gonorrhoeae FA19 = assay: MIC, N. gonorrhoeae drug-sensitive strain; conditions: for MIC: Neisseria gonorrhoeae, read-out: MIC N. gonorrhoeae FA 19
N. gonorrhoeae 35/02 = assay: MIC, N. gonorrhoeae drug-resistant strain; conditions: drug-resistant strain 35/02; for MIC: Neisseria gonorrhoeae

SMILES: C[C@](O)(c1ccc(O)cc1)[C@H](NC(=O)c1ccc(C#CC#Cc2ccc(N)cc2)cc1)C(=O)NO [CPD-051, 4-((4-aminophenyl)buta-1,3-diynyl)-N-((2S)-3-hydroxy-1-(hydroxyamino)-3-(4-hydroxyphenyl)-1-oxobutan-2-yl)benzamide]
- MIC (E. coli W3110): < 1 µg/mL
- MIC (E. coli W3110RL): 51 to 100 µg/mL (≈ 109 to 213 µM)
- MIC (P. aeruginosa (PAO1)): < 1 µg/mL
- MIC (E. coli W3110PA): < 1 µg/mL
- diameter of the growth inhibition, Sus. A.b. Isolate [1]: A
- diameter of the growth inhibition, MDR A.b. Isolate [2]: A

SMILES: CC(C)(O)[C@H](NC(=O)c1ccc(C#CC#Cc2ccc(N)cc2)cc1)C(=O)NO [CPD-037, (2S)-2-({4′-[4′-(4′-aminophenyl)buta-1′,3′-diyn-1-yl]phenyl}formamido)-N,3′-dihydroxy-3′-methylbutanamide]
- MIC (E. coli W3110): < 1 µg/mL
- MIC (E. coli W3110RL): 1 to 10 µg/mL (≈ 2.55 to 25.5 µM)
- MIC (P. aeruginosa (PAO1)): < 1 µg/mL
- MIC (E. coli W3110PA): < 1 µg/mL
- zone of inhibition at 2 µg/disc [1]: 11 to 15 mm
- zone of inhibition at 2 µg/disc [2]: 6 to 10 mm

SMILES: C[C@@H](O)[C@H](NC(=O)c1ccc(C#CC#Cc2ccc(N)cc2)cc1)C(=O)NO [CPD-011, (2S,3R)-2-{4′-[(4″-aminophenyl)buta-1′,3′-diynyl]benzamido}-1,3-dihydroxybutanamide]
- MIC E. coli W3110 (E. coli W3110): A (key: A: <1 μg/mL; B: 1-10 μg/mL; C: 11-50 μg/mL; D: 51-100 μg/mL; E: >100 μg/mL)
- MIC E. coli W3110RL (E. coli W3110RL): B (1-10 μg/mL)
- MIC P. aeruginosa (PAO1) (P. aeruginosa (PAO1)): A (<1 μg/mL)
- MIC E. coli W3110PA (E. coli W3110PA): A (<1 μg/mL)
- MIC N. gonorrhoeae FA 19 (N. gonorrhoeae FA19): C (2-4 μg/mL)
- MIC N. gonorrhoeae 35/02 (N. gonorrhoeae 35/02): D (5-7 μg/mL)
- diameter of the growth inhibition, Sus. A.b. Isolate [1]: A
- diameter of the growth inhibition, MDR A.b. Isolate [2]: A

SMILES: CN(C)[C@@H]1C(O)=C(C(N)=O)C(=O)[C@@]2(O)C(O)=C3C(=O)c4c(O)cccc4[C@@](C)(O)[C@H]3C[C@@H]12 [Tetracycline]
- zone of inhibition at 2 µg/disc [1]: 6 to 10 mm
- diameter of the growth inhibition, MDR A.b. Isolate [2]: A

SMILES: C[C@@](O)(C(F)F)[C@H](NC(=O)c1ccc(C#CC#Cc2ccccc2N)cc1)C(=O)NO [CPD-067, 4-((2-aminophenyl)buta-1,3-diynyl)-N-((2S,3S)-4,4-difluoro-3-hydroxy-1-(hydroxyamino)-3-methyl-1-oxobutan-2-yl)benzamide]
- MIC (N. gonorrhoeae FA19): < 0.1 µg/mL
- MIC (N. gonorrhoeae 35/02): 0.1 to 1 µg/mL (≈ 0.234 to 2.34 µM)
- zone of inhibition at 2 µg/disc [1]: 6 to 10 mm
- zone of inhibition at 2 µg/disc [2]: 6 to 10 mm

SMILES: CC(C)(N)[C@H](NC(=O)c1ccc(C#CC#Cc2ccccc2N)cc1)C(=O)NO [CPD-065, (S)-N-(3-amino-1-(hydroxyamino)-3-methyl-1-oxobutan-2-yl)-4-((2-aminophenyl)buta-1,3-diynyl)benzamide]
- MIC (N. gonorrhoeae FA19): 0.1 to 1 µg/mL (≈ 0.256 to 2.56 µM)
- MIC (N. gonorrhoeae 35/02): 2 to 4 µg/mL (≈ 5.12 to 10.2 µM)

SMILES: C[C@@H](O)[C@H]1C(=O)N2C(C(=O)O)=C(SCCN=CN)C[C@H]12 [Imipenem]
- zone of inhibition at 2 µg/disc [1]: ≥ 16 mm
- diameter of the growth inhibition, MDR A.b. Isolate [2]: A

SMILES: O=C(O)c1cn(C2CC2)c2cc(N3CCNCC3)c(F)cc2c1=O [Ciprofloxacin]
- zone of inhibition at 2 µg/disc [1]: ≥ 16 mm
- diameter of the growth inhibition, MDR A.b. Isolate [2]: A

SMILES: C[C@@H](O)[C@H](NC(=O)c1ccc(C#CC#Cc2cccc(N)c2)cc1)C(=O)NO [CPD-012, (2S,3R)-2-{4′-[(3″-aminophenyl)buta-1′,3′-diynyl]benzamido}-1,3-dihydroxybutanamide]
- MIC E. coli W3110 (E. coli W3110): A (key: A: <1 μg/mL; B: 1-10 μg/mL; C: 11-50 μg/mL; D: 51-100 μg/mL; E: >100 μg/mL)
- MIC E. coli W3110RL (E. coli W3110RL): B (1-10 μg/mL)
- MIC P. aeruginosa (PAO1) (P. aeruginosa (PAO1)): A (<1 μg/mL)
- MIC E. coli W3110PA (E. coli W3110PA): A (<1 μg/mL)
- diameter of the growth inhibition, Sus. A.b. Isolate [1]: A
- diameter of the growth inhibition, MDR A.b. Isolate [2]: A

SMILES: C[C@@H](O)[C@H](NC(=O)c1ccc(C#CC#Cc2ccccc2N)cc1)C(=O)NO [CPD-013, (2S,3R)-2-{4′-[(2″-aminophenyl)buta-1′,3′-diynyl]benzamido}-1,3-dihydroxybutanamide]
- MIC E. coli W3110 (E. coli W3110): A (key: A: <1 μg/mL; B: 1-10 μg/mL; C: 11-50 μg/mL; D: 51-100 μg/mL; E: >100 μg/mL)
- MIC E. coli W3110RL (E. coli W3110RL): C (11-50 μg/mL)
- MIC P. aeruginosa (PAO1) (P. aeruginosa (PAO1)): B (1-10 μg/mL)
- MIC E. coli W3110PA (E. coli W3110PA): A (<1 μg/mL)
- MIC N. gonorrhoeae FA 19 (N. gonorrhoeae FA19): B (0.1-1 μg/mL)
- MIC N. gonorrhoeae 35/02 (N. gonorrhoeae 35/02): C (2-4 μg/mL)
- diameter of the growth inhibition, Sus. A.b. Isolate [1]: A
- diameter of the growth inhibition, MDR A.b. Isolate [2]: A

SMILES: CC(C)(O)[C@H](NC(=O)c1ccc(C#CC#Cc2ccccc2N)cc1)C(=O)NO [CPD-066, (S)-4-((2-aminophenyl)buta-1,3-diynyl)-N-(3-hydroxy-1-(hydroxyamino)-3-methyl-1-oxobutan-2-yl)benzamide]
- MIC (N. gonorrhoeae FA19): 0.1 to 1 µg/mL (≈ 0.255 to 2.55 µM)
- MIC (N. gonorrhoeae 35/02): 2 to 4 µg/mL (≈ 5.11 to 10.2 µM)

SMILES: O=C(N[C@H](CO)[C@H](O)c1ccc([N+](=O)[O-])cc1)C(Cl)Cl [Chloramphenicol]
- zone of inhibition at 2 µg/disc [1]: 6 to 10 mm
- diameter of the growth inhibition, MDR A.b. Isolate [2]: A
